Values quoted from earlier work in patent US20120046368A1, “METHOD FOR PURIFYING 3,4-DIHYDROXYPHENYLGLYCOL (DHPG) FROM PLANT PRODUCTS” (CONSEJO SUPERIOR DE INVESTIGACIONES CIENTIFICAS, priority 2008, published 2012).

Experiments:
[1] = fold greater than ascorbic acid or HT
[2] = compared with HT

OCC(O)c1ccc(O)c(O)c1 (centres unmarked) [DHPG, 3,4-dihydroxyphenylglycol]
antioxidant efficacy in water relative to ascorbic acid or HT [1]: 2-3 times | antioxidant efficacy in a lipid medium relative to HT [2]: twice that of HT
